Reference: publication PMC11780439 (ACS Omega, 2025)
Like-named read-outs stand apart in the source and are kept apart here.

Columns and labels:
prion protein (PrP) [1] = target: T1, prion protein (PrP) (Mesocricetus auratus, UniProt P04273); experiment: biochemical
T1 construct: gene PRNP

prion protein (PrP) [2] = target: T1, prion protein (PrP); experiment: biochemical; remark: listed apart in the source

T1 sequence (P04273 90-231 limits assumed): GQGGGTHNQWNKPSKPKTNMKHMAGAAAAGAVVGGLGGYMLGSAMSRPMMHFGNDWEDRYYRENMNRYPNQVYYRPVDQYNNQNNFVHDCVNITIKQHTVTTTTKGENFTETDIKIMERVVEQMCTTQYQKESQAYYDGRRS

| Structure (SMILES) | IC50 (prion protein (PrP) [1]) [µM] | IC50 (prion protein (PrP) [2]) [µM] |
| --- | --- | --- |
| O=C(/C=C/c1ccc(O)c(O)c1)O[C@@H]1C[C@](O)(C(=O)O)C[C@@H](O)[C@H]1O [CA, chlorogenic acid] | 64.4 ± 12.1 |  |
| O=C(/C=C/c1ccc(O)c(O)c1)O[C@@H]1C[C@@](O)(C(=O)O)C[C@@H](O)[C@@H]1O [NCA, neochlorogenic acid] | 35.3 ± 7.09 |  |
| O=C(O[C@@H]1Cc2c(O)cc(O)cc2O[C@@H]1c1cc(O)c(O)c(O)c1)c1cc(O)c(O)c(O)c1 [EGCG, epigallocatechin gallate] |  | 2.84 ± 0.97 |
